Experimental data reported in US5656669A, “Restorative neuropharmacological agent for motor and speech disturbance” (Sumitomo Pharmaceuticals Co., Ltd., priority 1994, dated 1997).
Entries after “also recorded” stand apart in the source; their conditions may differ. Where two headings read alike, the source gives them in different places.

Tests used:
[1] = Side-effects in clinical subjects with speech disturbance; assay type: in vivo; settings: clinical subjects with Broca aphasia
Experimental: (§1) The clinical subjects for speech disturbance were 10 cases of Broca aphasia after stroke (3 males and 7 females, age 51-65 with an average of 58.6±1.6 years).
(§2) First, without administration of droxidopa, the clinical subjects were evaluated with standard aphasia testing (SLAT). […] For 8 of the clinical subjects, 100 mg of droxidopa was administered once a day for a subsequent 2 weeks and evaluation was conducted using SLAT.

rabbits = settings: oral 30, 100, 300 mg/kg/day; cited from earlier work
[2] = Repeated 2-day administration after 1-2 weeks and halt of administration, motor functions; assay type: in vivo, clinical subjects
Excerpt: The administration of droxidopa to the clinical subjects was then halted, but the level of the improvement effect on motor functions was maintained.

cultured cells = settings: cited from earlier work
physchem = assay type: physicochemical; settings: titration method
Excerpt: (§3) L-threo-DOPS, whose molecular formula is C9 H11 NO5, is white or light brown crystals or crystalline powder with no taste or odor. […] It is difficult to measure a clear melting point or decomposition point for L-threo-DOPS. […] DL-threo-DOPS, which contains 50% L-threo-DOPS, can also be used in this invention. Hereafter, L-threo-DOPS and DL-threo-DOPS are generically denoted as "threo-DOPS".

Mice, ICR strain = settings: cited from earlier work
microorganisms = settings: cited from earlier work
SD rats [3] = settings: cited from earlier work; for perinatal and lactation period findings: oral
beagle dogs [4] = settings: cited from earlier work; for LD50: oral
rhesus monkeys [5] = settings: cited from earlier work; for LD50: oral
[6] = Short term clinical testing, motor disturbance: Barthel index (ADL); assay type: in vivo, clinical subjects; settings: of the 19 cases improved in 10-meter walking; 300 mg per day for 2 days
Experimental: (§4) Clinical testing was conducted to evaluate the effects of the restorative neuropharmacological agent for motor and speech disturbance according to this invention.
(§5) Clinical subjects for motor disturbance were 2 cases after cerebral aneurysm operations (subarachnoid hemorrhage), 9 cases of brain hemorrhage and 10 cases of brain infarction with chronic apoplectic paralysis, i.e. a total of 21 cases (12 males and 9 females, age 43-83 with an average 61.9±2.5 years). For these clinical subjects, the average time elapsed from the onset had occurred was 100 days.
(§6) First, the clinical subjects received physical therapy without administration of droxidopa (L-DOPS), and then they were evaluated with FMS (Fugl-Meyer score), 10-meter walking and the Barthel index. The clinical subjects then received administration of 300 mg droxidopa (L-DOPS) per day for 2 days in addition to the physical therapy, and were evaluated with FMS. 10-meter walking and with the Barthel index.

[7] = Speech observation on administration and on stopping administration, Broca aphasia after stroke; assay type: in vivo, clinical subjects
Experimental: as §1, §2
Administration of droxidopa to these clinical subjects was stopped after 2 weeks. As a result, speech was totally lost in 2 cases. Subsequently, administration of droxidopa was stopped twice and, in one case, speech was totally lost every time administration was stopped and restored when administration was resumed.

beagle dogs [8] = settings: oral 200, 600, 2,000 mg/kg/day, 3 months; cited from earlier work
SD rats [9] = settings: cited from earlier work
Rats, SD strain = settings: cited from earlier work
solubility = assay type: physicochemical
Excerpt: as §3

beagle dogs [10] = settings: oral 125, 500, 2,000 mg/kg/day, 12 months; cited from earlier work
[11] = test system: guinea pigs (Hartley strain, male); settings: cited from earlier work
[12] = Clinical testing, speech disturbance (Broca aphasia after stroke): standard aphasia testing (SLAT); assay type: in vivo, clinical subjects; settings: after 2 weeks
Experimental: as §1, §2

SD rats [13] = settings: oral, 12 months, cited from earlier work
[14] = Short term clinical testing, motor disturbance: FMS (Fugl-Meyer score); assay type: in vivo, clinical subjects; settings: for Improvement in FMS: individual case
Experimental: as §4, §5, §6

SD rats [15] = settings: oral 60, 200, 600 mg/kg/day, male and female; cited from earlier work
[16] = Long term administration testing: Barthel index (ADL); assay type: in vivo, clinical subjects; settings: for Improvement in ADL: individual case
Experimental: Based on the above results, […] term administration testing was conducted.

rhesus monkeys [17] = settings: oral 300, 1,000, 3,000 mg/kg/day, 3 months; cited from earlier work
[18] = Short term clinical testing: central-facial palsy; assay type: in vivo, clinical subjects; settings: all of the 12 cases with central-facial palsy; 300 mg per day for 2 days; none of 6 control cases
SD rats [19] = settings: 3 months, cited from earlier work
[20] = Short term clinical testing, motor disturbance: 10-meter walking; assay type: in vivo, clinical subjects; settings: of the 21 cases; 300 mg per day for 2 days
Experimental: as §4, §5, §6

mice = settings: cited from earlier work
[21] = test system: aromatic L-amino acid decarboxylase; settings: by aromatic L-amino acid decarboxylase; conventional pharmacological features; cited from earlier work
[22] = conventional pharmacological features; cited from earlier work
[23] = of the 21 cases, 300 mg per day for 2 days

N[C@@H](C(=O)O)[C@H](O)c1ccc(O)c(O)c1 [L-threo-DOPS, (-)-(2R, 3R)-2-amino-3-hydroxy-3-(3,4-dihydroxyphenyl) propionic acid]
side-effects [1]: No serious side-effect was observed
influence, organ forming period (rabbits): no influence on the rabbits was observed
cases with further improvement on repeated administration ([2]; 5 cases re-dosed for 2 consecutive days after 1-2 weeks): 3 cases
level of the improvement effect on motor functions after administration was halted ([2]; after halting administration): maintained
mutagenicity, chromosome abnormality testing (cultured cells): no mutagenicity was observed
pKa (physchem): 7.88
LD50 (Mice, ICR strain; hypodermic, female): > 10000 mg/kg
LD50 (Mice, ICR strain; hypodermic, male): > 10000 mg/kg
LD50 (Mice, ICR strain; intravenous, female): > 100 mg/kg
LD50 (Mice, ICR strain; intravenous, male): > 100 mg/kg
general symptoms, acute toxicity (Mice, ICR strain; mice): reduced voluntary motions, deep breathing and bradypnea were observed
LD50 (Mice, ICR strain; oral, female): > 10000 mg/kg
LD50 (Mice, ICR strain; oral, male): > 10000 mg/kg
mutagenicity, back mutation testing (microorganisms): no mutagenicity was observed
other influence, perinatal and lactation period (SD rats [3]; oral 60, 200, 600 mg/kg/day): No other influence was observed
perinatal and lactation period findings (SD rats [3]; 60 mg/kg or higher): suppression of neonatal development after birth was observed
perinatal and lactation period findings (SD rats [3]; 600 mg/kg): shortening of the pregnancy period was observed
general symptoms, acute toxicity (beagle dogs [4]; dogs): no abnormal symptom was observed
LD50 (beagle dogs [4]; female): > 5000 mg/kg
LD50 (beagle dogs [4]; male): > 5000 mg/kg
LD50 (rhesus monkeys [5]; female): > 5000 mg/kg
LD50 (rhesus monkeys [5]; male): > 5000 mg/kg
general symptoms, acute toxicity (rhesus monkeys [5]; rhesus monkeys): no abnormal symptom was observed
cases with improvement in the Barthel index (ADL) [6]: one
speech after 2 days of administration ([7]; 300 mg, 3 times a day for 2 days): speech improved
cases in which speech was totally lost after administration was stopped ([7]; administration stopped after 2 weeks): 2 cases
cases in which speech was totally lost every time administration was stopped and restored when resumed ([7]; administration stopped twice): one
subacute toxicity findings (beagle dogs [8]): no abnormality was observed
other influence, organ forming period (SD rats [9]; oral 60, 200, 600 mg/kg/day): No other influence was observed
findings in fetuses (SD rats [9]; oral, 200 mg/kg or higher, restorable after birth): lower body weights of fetuses and an increase in the occurrence of undulating ribs were observed
LD50 (Rats, SD strain; hypodermic, female): 95 mg/kg
LD50 (Rats, SD strain; hypodermic, male): 84 mg/kg
LD50 (Rats, SD strain; intravenous, female): 19 mg/kg
LD50 (Rats, SD strain; intravenous, male): 16 to 19 mg/kg
LD50 (Rats, SD strain; oral, female): > 10000 mg/kg
LD50 (Rats, SD strain; oral, male): > 10000 mg/kg
general symptoms, acute toxicity (Rats, SD strain; rats): reduced voluntary motions, deep breathing and bradypnea were observed
solubility in ethanol (solubility; ethanol): dissolves very little
solubility in ether (solubility; ether): dissolves very little
solubility in glacial acetic acid (solubility; glacial acetic acid): dissolves very little
solubility in water (solubility; water): dissolves only slightly
chronic toxicity findings (beagle dogs [10]): no abnormality was observed
Endodermoreaction [11]: negative
PCA reaction [11]: negative
intra-gel sedimentation reaction [11]: negative
systemic anaphylaxis reaction [11]: negative
cases with improvement in "hearing" (SLAT) [12]: one
cases with improvement in "reading" (SLAT) [12]: 3 cases
cases with improvement in "repeating" (SLAT) [12]: 2 cases
cases with improvement in "speaking" (SLAT) [12]: 7 cases
cases with improvement in "writing" (SLAT) [12]: 6 cases
average improvement rate, SLAT "hearing", imperatives ([12]; 100 mg once a day): 16%
average improvement rate, SLAT "hearing", short sentences ([12]; 100 mg once a day): 33%
average improvement rate, SLAT "reading", Chinese character words ([12]; 100 mg once a day): 10%
average improvement rate, SLAT "reading", short sentences ([12]; 100 mg once a day): 20%
average improvement rate, SLAT "repeating" ([12]; 100 mg once a day): 10%
average improvement rate, SLAT "speaking", actions ([12]; 100 mg once a day): 13%
average improvement rate, SLAT "speaking", names ([12]; 100 mg once a day): 27%
average improvement rate, SLAT "writing", Japanese syllabary words ([12]; 100 mg once a day): 20%
cases with improved SLAT results ([12]; of the 10 cases): 8 cases
chronic toxicity findings (SD rats [13]; 30 mg/kg/day and higher): suppression of weight increases, an increase in thymus weight, necrosis of kidney uriniferous tubuli, degeneration of kidney glomeruli, etc. were observed
chronic toxicity findings (SD rats [13]; 100 mg/kg/day and higher): drooling, myocarditis and calcification of cardiac muscles, etc. were observed
FMS increase ([14]; 300 mg per day for 2 days plus physical therapy, higher than control cases): 2.5±0.5
Improvement in FMS ([14]; brain hemorrhage (BH), 300 mg per day for 2 days plus physical therapy, listed as L-DOPS): Improved; also recorded: No change
Improvement in FMS ([14]; brain infarction (BI), 300 mg per day for 2 days plus physical therapy, listed as L-DOPS): Improved; also recorded: No change
Improvement in FMS ([14]; subarachnoid hemorrhage (SAH), 300 mg per day for 2 days plus physical therapy): Improved
cases with improved balance (FMS) [14, 23]: 3 cases
cases with improvement in lower limb motor function (FMS) [14, 23]: 6 cases
cases with improvement in upper limb motor function (FMS) [14, 23]: 10 cases
cases with improved FMS ([14]; of the 21 cases, 300 mg per day for 2 days plus physical therapy): 15 cases
mating rate, conception rate, nidation number, embryo/neonate death, teratogenic actions or fetal development (SD rats [15]): no influence was observed
dependence of results on time elapsed since onset of the illness ([16]; 200-500 mg/day for 2 weeks to 2 months): independent of the time elapsed since onset of the illness
Improvement in ADL ([16]; 200 mg per day × 2W, listed as L-DOPS): Improved; also recorded: No change
Improvement in ADL ([16]; 200 mg per day × 4W): No change
Improvement in ADL ([16]; 200 mg per day × 8W): Improved
Improvement in ADL ([16]; 300 mg per day × 3W): Improved
Improvement in ADL ([16]; 300 mg per day × 6W): Improved
Improvement in ADL ([16]; 300 mg per day × 7W): No change
Improvement in ADL ([16]; 500 mg per day × 6W): Improved
cases with improvement in the Barthel index (ADL) ([16]; of the 10 cases, 200-500 mg/day for 2 weeks to 2 months): 7 cases
subacute toxicity findings (rhesus monkeys [17]): no abnormality was observed
cases with central-facial palsy that showed improvement [18]: 12 cases
subacute toxicity findings (SD rats [19]; oral, 60 mg/kg/day and higher): suppressed voluntary motions, necrosis of kidney uriniferous tubuli, necrosis of cardiac muscles, etc. were observed
subacute toxicity findings (SD rats [19]; oral, 300 mg/kg/day and higher): Suppression of weight increases and such were observed
subacute toxicity findings (SD rats [19]; oral, 1,500 mg/kg/day): Drooling was observed
cases with improvement in the 10-meter walking [20]: 19 cases
mutagenicity, micronucleus testing (mice): no mutagenicity was observed

N[C@H](C(=O)O)[C@H](O)c1ccc(O)c(O)c1 [threo-DOPS]
conversion to norepinephrine [21]: directly converted to 1-norepinephrine
passage through the blood-brain barrier [22]: passes through the blood-brain barrier into the brain
